Patent publication US20240261292A1, “COMBINATION THERAPIES” (Janssen Pharmaceutica NV, priority 2021, published 2024)
pIC50: −log10 of the molar value.

Key:
OCI-AML3 cells [1] = test: In vitro proliferation (spheroid, Incucyte), menin-MLL inhibitor with DHODH inhibitor, OCI-AML3; format: cell-based, human; conditions: 8 days
From the text: Spheroid-like growth was monitored in real-time by non-invasive live-cell imaging using the 4× objective of the Incucyte ZOOM live cell imaging system (Essen BioScience), and acquiring images on Day 8. […] The DMSO content was normalized to 0.3% and the percent confluence from the DMSO well was used as baseline response. […] Data from 2 independent experiments from MOLM-13 or 3 independent experiments from OCI-AML3 cells were pooled and analyzed.

MOLM-13 tumors = test: Efficacy of menin-MLL inhibitor in combination with DHODH inhibitor in MOLM-13 (KMT2A-r) IV model; format: in vivo; conditions: MOLM-13 IV, NSG mice
From the text: 15) In Vivo Efficacy of Menin-MLL Inhibitor in Combination with DHODH Inhibitor in Disseminated Models of Human Acute Myeloid Leukemia (MOLM-13 and OCI-AML) 15A) Efficacy of Menin-MLL Inhibitor in Combination with DHODH Inhibitor in MOLM-13 (KMT2A-r) IV Model in NSG Mice
Day 0 is the day of tumor cell implantation and study initiation. In the MOLM-13 efficacy study, mice bearing IV MOLM-13 xenograft tumors were randomly assigned to treatment groups 5 days post-tumor cell engraftment.

OCI-AML3 tumors = test: Efficacy of menin-MLL inhibitor in combination with DHODH inhibitor in OCI-AML3 (NPM1c) IV model; format: in vivo; conditions: NSG mice
From the text: 15B) Efficacy of Menin-MLL Inhibitor in Combination with DHODH Inhibitor in OCI-AML3 (NPM1c) IV Model in NSG Mice In the OCI-AML3 efficacy study, mice bearing IV OCI-AML3 xenograft tumors were randomly assigned to treatment groups 5 days post-tumor cell engraftment.

OCI-AML3 cells [2] = test: Proliferation assay (spheroid), OCI-AML3; format: cell-based, human; conditions: 8 days
Experimental: The anti-proliferative effect of menin/MLL protein/protein interaction inhibitor test compounds was assessed inhuman leukemia cell lines. The cell line MOLM-14 harbors a MLL translocation and expresses the MLL fusion protein MLL-AF9, respectively, as well as the wildtype protein from the second allele. OCI-AML3 cells that carry the NPM1c gene mutation were also tested. […] KO-52 was used as a control cell line containing two MLL (KMT2A) wildtype alleles in order to exclude compounds that display general cytotoxic effects.
KO-52 and OCI-AML3 cell lines were propagated in alpha-MEM (Sigma Aldrich) supplemented with 20% heat-inactivated fetal bovine serum (HyClone), 2 mM L-glutamine (Sigma Aldrich) and 50 μg/ml gentamycin (Gibco).
In order to assess the anti-proliferative effects, 200 MOLM-14 cells, 200 OCI-AML3 cells or 300 KO-52 cells were seeded in 200 μl media per well in 96-well round bottom, ultra-low attachment plates (Costar, catalogue number 7007). Cell seeding numbers were chosen based on growth curves to ensure linear growth throughout the experiment. Test compounds were added at different concentrations and the DMSO content was normalized to 0.3%. Cells were incubated for 8 days at 37° C. and 5% CO2. Spheroid like growth was measured in real-time by live-cell imaging (IncuCyteZOOM, Essenbio, 4× objective) acquiring images at day 8. Confluence (%) as a measure of spheroid size was determined using an integrated analysis tool.
In order to determine the effect of the test compounds over time, the confluence in each well as a measure of spheroid size, was calculated. Confluence of the highest dose of a reference compound was used as baseline for the LC (Low control) and the confluence of DMSO treated cells was used as 0% cytotoxicity (High Control, HC).
HC=High Control: Mean confluence (%) (DMSO treated cells);
Dose-response equation was used for the plot of % Effect vs Log10 compound concentration with a variable slope and fixing the maximum to 100% and the minimum to 0%. 2b) MEIS1 mRNA Expression Assay

[3] = system: iCell Cardiomyocytes2 (hSC-CMs); test: Ca2+-fluorescence assay in human pluripotent stem cell-derived cardiomyocytes (CTCM human); format: cell-based; design: key to Hazard Scoring Color @ 0.1 μM / Hazard Scoring Color @ 0.2 μM / Hazard Scoring Color @ 0.5 μM / Hazard Scoring Color @ 1 μM / Hazard Scoring Color @ 2.5 μM / Hazard Scoring Color @ 5 μM / Hazard Scoring Color @ 0.3 μM / Hazard Scoring Color @ 3 μM / Hazard Scoring Color @ 10 μM / Hazard Scoring Color @ 30 μM: Green: No concern; Yellow: Low concern; Red: High concern; Black: Very high concern due to arrhythmic events
Experimental: 7) Cardio-Electrophysiological Effects of the Testing Compounds in Synchronously Beating Human Pluripotent Stem Cell-Derived Cardiomyocytes (hSC-CMs) Using a Ca^2+-Fluorescence Assay (CTCM Human)
Compounds were tested in the 96-well plates.
Compounds were tested at 0.1 μM, 0.2 μM, 0.5 μM, 1 μM, 2.5 μM and 5 μM (n=4 per dose) on Cor.4U®-Cardiomyocytes or on iCell® Cardionyocytes2.
Alternatively, compounds were tested at 0.1 μM, 0.3 μM; 1 μM, 3 μM, 10 μM and 30 μM (n=4 per dose) mostly on iCell® Cardiomyocytes2.
Vehicle control: Dimethylsulfoxide (DMSO). The solutions of the compound in DMSO or its solvent (final concentration of 0.1% DMSO; n=8).
Tested compounds were dissolved in DMSO at 1000-fold the intended concentrations. A compound “mother-plate” was made, containing the test compounds and positive and negative controls at 1000-fold the final concentrations. At the experiment day, these stock solutions were diluted with Tyrode (Sigma), supplemented with 10 mM HEPES (Gibco), to 2-fold the intended concentration (in round bottom compound plates). Final DMSO concentration in test solutions and vehicle control was 0.1%.
hSC-CMs (Cor.4U® Cardiomyocytes) were obtained from CDI (Ncardia, Germany). Cells are pre-plated and seeded in fibronectin-coated 96-well plates at a density suited to form a monolayer and maintained in culture in a stage incubator (37° C., 5% CO2), according to the instructions of the cell provider.
Second line hSC derived cardiomyocyte called iCell® Cardiomyocytes2 were purchased from FUJIFILM Cellular Dynamics (USA). The experiments with test drugs are carried out 5 to 7 days after plating the cells onto the plate to have a living, beating monolayer of hiPSC-derived cardiomyocytes. The beating monolayer in 96-well-plates are normally taken from 2 Vials of frozen iCell® Cardiomyocytes2 (≈5 million cells/vial), which will be plated onto three 96-well plates (≈50K/well).
At least one hour before the start of the experiments the normal cell medium was replaced with Tyrode solution with Calcium dye (see below).
Cal 520 dye (AAT Bioquest) was dissolved in 11 ml of Tyrode supplemented with 10 mM HEPES and warmed up to 37 C before adding to the cells.
35 μl cell culture medium was removed from each well and replaced with 35 μl of pre-warmed Cal 520 dye solution and cell plate was incubated for 45 min at 37° C./5% CO2. Cells were incubated for 5 min at 37° C.
Spontaneous electrical activity is recorded, using Cal520™ (AAT Bioquest) calcium fluorescence-dye signalling. This dye integrates the total intracellular calcium activity over the whole well. A bottle of Ca1520 dye (50 μg, MW: 1103/mol) is dissolved with 50 μl DMSO as a stock solution of 0.9 mM. 50 μL of the stock solution of the dye was added to 10 ml Tryodes solution to have dye concentration of 4.5 μM. Subsequently, 35 μl of this dye solution was added into each well, to have a final dye concentration of 1.58 μM. The current dye protocol on this CTCM human assay was established recently (Ivan Kopljar et al, Journal of Pharmacological and toxicological methods 2018. 91: 80-86; Lu et al., Tox Sci 2019. 170 (2): 345-356).
Fluorescent signals (Ca^2+ transient morphology) were measured using the Functional Drug Screen System (FDSS/μCell; Hamamatsu, Japan) and the recordings were subsequently analyzed off-line, using appropriate software e.g., Notocord.
The cell plate was loaded into the FDSS/μCell for a test run: Ca^2+ transients were measured for 4 minutes to check for synchronous beating of the cardiomyocytes in each well. All 96 wells were measured simultaneously (sampling interval: 0.06 s, short exposure time: 10 ms; excitation wavelength 480 nm; emission wavelength 540 nm; FDSS/μCell warmed to 37° C.).
During the compound addition step, 100 μl of the respective double-concentrated test solutions was pipetted into each well simultaneously.
Data were analyzed off-line using appropriate software e.g., Notocord-Hem (version 4.3). […]

[4] = Compound 22 0.0125 mg/kg (so in the source) PO daily 28 days
[5] = Compound 22 0.063 mg/kg PO daily 28 days
[6] = Compound 22 0.125 mg/kg PO daily 28 days
[7] = Compound 22 0.25 mg/kg PO daily 28 days
[8] = efficacious dose in mouse xenograft models of 30 mg/kg, (mouse, human), estimated

SMILES | Growth inhibition, monotherapy (in words) (OCI-AML3 cells [1]) | % ILS (MOLM-13 tumors; [4]) | Median Survival (MOLM-13 tumors; [4]) | % ILS (MOLM-13 tumors; [5]) | Median Survival (MOLM-13 tumors; [5]) | % ILS (OCI-AML3 tumors; [6]) | Median Survival (OCI-AML3 tumors; [6]) | % ILS (OCI-AML3 tumors; [7]) | Median Survival (OCI-AML3 tumors; [7]) | pIC50 (OCI-AML3 cells [2]) | Hazard Scoring Color @ 0.1 μM ([3]; 0.1 μM, 30 min, iCell Cardiomyocytes2 (Table 12)) | Hazard Scoring Color @ 0.3 μM ([3]; 0.3 μM, 30 min, iCell Cardiomyocytes2 (Table 12)) | Hazard Scoring Color @ 1 μM ([3]; 1 μM, 30 min, iCell Cardiomyocytes2 (Table 12)) | Hazard Scoring Color @ 3 μM ([3]; 3 μM, 30 min, iCell Cardiomyocytes2 (Table 12)) | Hazard Scoring Color @ 10 μM ([3]; 10 μM, 30 min, iCell Cardiomyocytes2 (Table 12)) | Hazard Scoring Color @ 30 μM ([3]; 30 μM, 30 min, iCell Cardiomyocytes2 (Table 12)) | Margin CTCM human 10 μM vs free Cmax [3, 8] | Margin CTCM human 30 μM vs free Cmax [3, 8]
CCn1c(CO)nn(-c2cc3c(C(C)C)cn(-c4ccccc4C)c(=O)c3cc2F)c1=O [Compound 22, 6-(4-Ethyl-3-(hydroxymethyl)-5-oxo-4,5-dihydro-1H-1,2,4-triazol-1-yl)-7-fluoro-4-isopropyl-2-(o-tolyl)isoquinolin-1(2H)-one] | potent growth inhibition | *125% | 40.5 | *111% | 38 | *60% | 41.5 | *65% | 43 |  |  |  |  |  |  |  |  | 
CCN(C(=O)c1cc(F)ccc1Oc1nncnc1N1CCC2(C1)CN([C@H](CCCN(C)CCOC)C(C)C)C2)C(C)C [Compound A1] |  |  |  |  |  |  |  |  |  | 7.10 | Green | Green | Green | Green | Green | yellow | > 16 | > 45
